Experimental data reported in PubChem BioAssay (NCI).
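Each compound was tested at five concentrations against cells in 96-well plates for 48 hours. TGI denotes the concentration required for complete inhibition of growth.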

Key:
Experiment in all cases: NCI-60 cell line screen, 48 h
[1] = system: 786-0 renal
[2] = system: A498 renal
[3] = system: A549 NSCLC
[4] = system: ACHN renal
[5] = system: BT-549 breast
[6] = system: CAKI-1 renal
[7] = system: CCRF-CEM leukemia
[8] = system: COLO 205 colon
[9] = system: DU-145 prostate
[10] = system: EKVX NSCLC
[11] = system: HCC-2998 colon
[12] = system: HCT-116 colon
[13] = system: HCT-15 colon
[14] = system: HOP-62 NSCLC
[15] = system: HOP-92 NSCLC
[16] = system: HS 578T breast
[17] = system: HT29 colon
[18] = system: IGROV1 ovarian
[19] = system: K-562 leukemia
[20] = system: KM12 colon
[21] = system: LOX IMVI melanoma
[22] = system: M14 melanoma
[23] = system: MALME-3M melanoma
[24] = system: MCF7 breast
[25] = system: MDA-MB-231 breast
[26] = system: MDA-MB-435
[27] = system: MDA-N
[28] = system: MOLT-4 leukemia
[29] = system: NCI-H23 lung
[30] = system: NCI-H460 lung
[31] = system: NCI-H522 lung
[32] = system: NCI/ADR-RES ovarian
[33] = system: OVCAR-3 ovarian
[34] = system: OVCAR-4 ovarian
[35] = system: OVCAR-5 ovarian
[36] = system: OVCAR-8 ovarian
[37] = system: PC-3 prostate
[38] = system: RPMI-8226 leukemia
[39] = system: SF-268 CNS
[40] = system: SF-295 CNS
[41] = system: SF-539 CNS
[42] = system: SK-MEL-28 melanoma
[43] = system: SK-MEL-5 melanoma
[44] = system: SK-OV-3 ovarian
[45] = system: SN12C renal
[46] = system: SNB-19 CNS
[47] = system: SNB-75 CNS
[48] = system: SR leukemia
[49] = system: SW-620 colon
[50] = system: T-47D breast
[51] = system: TK-10 renal
[52] = system: U251 CNS
[53] = system: UACC-257 melanoma
[54] = system: UACC-62 melanoma
[55] = system: UO-31 renal
[56] = system: NCI-H226 lung
[57] = system: SK-MEL-2 melanoma

OC(Cc1ccc2ccccc2n1)(C(F)(F)F)C(F)(F)F
TGI [1]: > 10 µM | TGI [2]: > 10 µM | TGI [3]: > 10 µM | TGI [4]: > 10 µM | TGI [5]: > 10 µM | TGI [6]: > 10 µM | TGI [7]: > 10 µM | TGI [8]: > 10 µM | TGI [9]: > 10 µM | TGI [10]: > 10 µM | TGI [11]: > 10 µM | TGI [12]: > 10 µM | TGI [13]: > 10 µM | TGI [14]: > 10 µM | TGI [15]: > 10 µM | TGI [16]: > 10 µM | TGI [17]: > 10 µM | TGI [18]: > 10 µM | TGI [19]: > 10 µM | TGI [20]: > 10 µM | TGI [21]: > 10 µM | TGI [22]: > 10 µM | TGI [23]: > 10 µM | TGI [24]: > 10 µM | TGI [25]: > 10 µM | TGI [26]: > 10 µM | TGI [27]: > 10 µM | TGI [28]: > 10 µM | TGI [29]: > 10 µM | TGI [30]: > 10 µM | TGI [31]: > 10 µM | TGI [32]: > 10 µM | TGI [33]: > 10 µM | TGI [34]: > 10 µM | TGI [35]: > 10 µM | TGI [36]: > 10 µM | TGI [37]: > 10 µM | TGI [38]: > 10 µM | TGI [39]: > 10 µM | TGI [40]: > 10 µM | TGI [41]: > 10 µM | TGI [42]: > 10 µM | TGI [43]: > 10 µM | TGI [44]: > 10 µM | TGI [45]: > 10 µM | TGI [46]: > 10 µM | TGI [47]: > 10 µM | TGI [48]: > 10 µM | TGI [49]: > 10 µM | TGI [50]: > 10 µM | TGI [51]: > 10 µM | TGI [52]: > 10 µM | TGI [53]: > 10 µM | TGI [54]: > 10 µM | TGI [55]: > 10 µM

COc1ccc(-n2cnc3c(NCC(=O)O)ncnc32)cc1
TGI [1]: > 100 µM | TGI [2]: > 100 µM | TGI [3]: > 100 µM | TGI [4]: > 100 µM | TGI [5]: > 100 µM | TGI [6]: > 100 µM | TGI [7]: > 100 µM | TGI [8]: > 100 µM | TGI [9]: > 100 µM | TGI [10]: > 100 µM | TGI [11]: > 100 µM | TGI [12]: > 100 µM | TGI [13]: > 100 µM | TGI [14]: > 100 µM | TGI [15]: > 100 µM | TGI [16]: > 100 µM | TGI [17]: > 100 µM | TGI [18]: > 100 µM | TGI [19]: > 100 µM | TGI [20]: > 100 µM | TGI [21]: > 100 µM | TGI [22]: > 100 µM | TGI [23]: > 100 µM | TGI [24]: > 100 µM | TGI [25]: > 100 µM | TGI [26]: > 100 µM | TGI [27]: > 100 µM | TGI [28]: > 100 µM | TGI [56]: > 100 µM | TGI [29]: > 100 µM | TGI [30]: > 100 µM | TGI [31]: > 100 µM | TGI [32]: > 100 µM | TGI [33]: > 100 µM | TGI [34]: > 100 µM | TGI [35]: > 100 µM | TGI [36]: > 100 µM | TGI [37]: > 100 µM | TGI [38]: > 100 µM | TGI [39]: > 100 µM | TGI [40]: > 100 µM | TGI [57]: > 100 µM | TGI [42]: > 100 µM | TGI [43]: > 100 µM | TGI [44]: > 100 µM | TGI [45]: > 100 µM | TGI [46]: > 100 µM | TGI [47]: > 100 µM | TGI [48]: > 100 µM | TGI [49]: > 100 µM | TGI [50]: > 100 µM | TGI [51]: > 100 µM | TGI [52]: > 100 µM | TGI [53]: > 100 µM | TGI [54]: > 100 µM | TGI [55]: > 100 µM

O=C(Nc1ccc(Cl)cc1)/C(=C(/[O-])c1ccc(Br)cc1)[n+]1cccc(-c2ccc(Cl)cc2)n1
TGI [1]: 14.3 µM | TGI [2]: > 100 µM | TGI [3]: > 100 µM | TGI [4]: 46.1 µM | TGI [5]: 9.35 µM | TGI [6]: 6.66 µM | TGI [8]: > 100 µM | TGI [9]: > 100 µM | TGI [10]: 19.3 µM | TGI [11]: 24 µM | TGI [12]: 13 µM | TGI [13]: 51.7 µM | TGI [14]: 29.2 µM | TGI [15]: > 100 µM | TGI [16]: 9.65 µM | TGI [18]: 14.8 µM | TGI [19]: > 100 µM | TGI [20]: 9.86 µM | TGI [21]: > 100 µM | TGI [22]: 18.5 µM | TGI [23]: 11.3 µM | TGI [24]: 3.28 µM | TGI [25]: > 100 µM | TGI [26]: 25 µM | TGI [27]: > 100 µM | TGI [28]: > 100 µM | TGI [29]: 9.04 µM | TGI [30]: 16.5 µM | TGI [31]: 6.83 µM | TGI [32]: 31.6 µM | TGI [33]: 12.9 µM | TGI [34]: 29.4 µM | TGI [35]: 21.7 µM | TGI [36]: 14.2 µM | TGI [37]: > 100 µM | TGI [38]: > 100 µM | TGI [39]: 19.5 µM | TGI [40]: 11.2 µM | TGI [57]: 12.3 µM | TGI [42]: 71.1 µM | TGI [43]: > 100 µM | TGI [44]: 33.7 µM | TGI [45]: 8.44 µM | TGI [46]: > 100 µM | TGI [47]: 26.1 µM | TGI [48]: > 100 µM | TGI [49]: > 100 µM | TGI [50]: 5.14 µM | TGI [51]: 67.8 µM | TGI [52]: > 100 µM | TGI [53]: > 100 µM | TGI [54]: 22.8 µM | TGI [55]: 42.6 µM
